For this assay, the system named is HIV-1. As to conditions: cMAGI/MAGI cells; for IC50: 50% reduction in infectious virus titer; for IC90: 90% reduction in infectious virus titer. From the text:
The number of stained nuclei can thus be interpreted as equal to the number of infectious virions in the challenge inoculum if there is only one round of infection prior to staining.

In the case of “Pegylated T20 with PEG10K-butanoaldehyde [Example 2]”, the 50% inhibitory concentration (IC50) – broadly, the concentration that inhibits the measured activity by half – was determined as 0.266 mg/L and the IC90 (in general, the point of the concentration-response curve where the effect stands at 90%) was determined as 2.536 mg/L.
For the substance “Pegylated T20 with mPEG10k-propionaldehyde [Example 3]”, the concentration for half-maximal inhibition (IC50) was 0.261 mg/L and the IC90 was found to be 3.074 mg/L.

Source of the values: patent publication US7049415B2 (priority 2002, dated 2006).
